From ChEMBL document CHEMBL1139497, “The effects of conformational constraints and steric bulk in the amino acid moiety of philanthotoxins on AMPAR antagonism” (J Med Chem, 2005)

Assays:
[1] = molecular target: Glutamate receptor ionotropic, AMPA (Rattus norvegicus, UniProt P19490+P19491+P19492+P19493); test: Inhibition of kainate-induced currents of rat ionotropic glutamate receptor AMPA expressed in Xenopus laevis oocytes; format: cell-based, Oocyte
[2] = molecular target: Glutamate receptor ionotropic, AMPA (Rattus norvegicus, UniProt P19491+P19492+P19493+P19490); test: Inhibition of kainate-induced currents of rat ionotropic glutamate receptor AMPA expressed in Xenopus laevis oocytes; not active; format: cell-based; details: oocyte
Sequence of Glutamate receptor ionotropic, AMPA (Rattus norvegicus, UniProt P19491+P19492+P19493+P19490) (P19491 whole entry): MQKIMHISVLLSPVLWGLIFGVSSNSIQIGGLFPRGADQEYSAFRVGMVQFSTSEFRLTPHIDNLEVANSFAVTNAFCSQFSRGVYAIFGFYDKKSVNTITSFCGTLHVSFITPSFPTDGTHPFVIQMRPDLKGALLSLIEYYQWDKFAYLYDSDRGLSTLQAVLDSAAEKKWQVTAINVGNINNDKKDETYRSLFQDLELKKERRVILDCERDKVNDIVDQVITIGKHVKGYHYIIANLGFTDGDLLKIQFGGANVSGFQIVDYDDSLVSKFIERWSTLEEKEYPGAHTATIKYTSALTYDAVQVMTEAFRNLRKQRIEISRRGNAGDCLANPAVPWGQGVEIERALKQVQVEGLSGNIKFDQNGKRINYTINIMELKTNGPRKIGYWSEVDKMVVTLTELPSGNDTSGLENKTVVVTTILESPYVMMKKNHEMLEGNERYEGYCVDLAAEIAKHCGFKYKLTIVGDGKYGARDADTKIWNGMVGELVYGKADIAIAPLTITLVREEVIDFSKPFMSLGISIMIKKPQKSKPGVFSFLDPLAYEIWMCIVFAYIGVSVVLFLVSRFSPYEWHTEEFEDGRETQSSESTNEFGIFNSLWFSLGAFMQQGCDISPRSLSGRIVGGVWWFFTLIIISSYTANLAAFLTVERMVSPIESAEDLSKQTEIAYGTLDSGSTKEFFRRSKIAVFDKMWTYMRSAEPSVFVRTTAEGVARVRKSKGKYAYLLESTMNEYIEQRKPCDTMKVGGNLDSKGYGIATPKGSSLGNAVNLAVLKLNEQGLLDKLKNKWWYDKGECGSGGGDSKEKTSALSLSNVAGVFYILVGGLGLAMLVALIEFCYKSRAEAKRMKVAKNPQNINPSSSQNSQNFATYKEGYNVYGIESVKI
Sequence of Glutamate receptor ionotropic, AMPA (Rattus norvegicus, UniProt P19491+P19492+P19493+P19490) (P19492 whole entry): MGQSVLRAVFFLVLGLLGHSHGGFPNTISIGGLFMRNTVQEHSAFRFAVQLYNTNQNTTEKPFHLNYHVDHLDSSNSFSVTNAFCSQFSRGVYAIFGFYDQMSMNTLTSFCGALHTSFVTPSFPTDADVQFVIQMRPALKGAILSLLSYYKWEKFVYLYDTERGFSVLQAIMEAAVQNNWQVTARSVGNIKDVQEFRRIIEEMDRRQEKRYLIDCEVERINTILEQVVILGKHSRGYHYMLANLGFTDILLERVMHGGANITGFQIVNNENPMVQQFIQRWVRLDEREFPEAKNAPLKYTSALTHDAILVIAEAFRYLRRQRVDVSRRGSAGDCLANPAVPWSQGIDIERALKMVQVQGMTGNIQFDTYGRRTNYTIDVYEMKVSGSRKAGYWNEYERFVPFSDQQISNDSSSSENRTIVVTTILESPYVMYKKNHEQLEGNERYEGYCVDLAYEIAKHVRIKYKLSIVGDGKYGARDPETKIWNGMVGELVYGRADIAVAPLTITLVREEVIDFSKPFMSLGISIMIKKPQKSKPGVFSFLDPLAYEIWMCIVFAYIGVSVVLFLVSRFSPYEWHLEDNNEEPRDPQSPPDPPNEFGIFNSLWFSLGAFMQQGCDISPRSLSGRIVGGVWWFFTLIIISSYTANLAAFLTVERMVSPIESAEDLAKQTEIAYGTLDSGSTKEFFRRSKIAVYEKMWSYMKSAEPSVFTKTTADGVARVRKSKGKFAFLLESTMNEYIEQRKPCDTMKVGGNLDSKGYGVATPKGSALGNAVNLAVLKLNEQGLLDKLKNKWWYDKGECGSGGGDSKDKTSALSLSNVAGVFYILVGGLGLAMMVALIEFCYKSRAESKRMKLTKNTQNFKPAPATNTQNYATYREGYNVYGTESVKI
Sequence of Glutamate receptor ionotropic, AMPA (Rattus norvegicus, UniProt P19491+P19492+P19493+P19490) (P19493 whole entry): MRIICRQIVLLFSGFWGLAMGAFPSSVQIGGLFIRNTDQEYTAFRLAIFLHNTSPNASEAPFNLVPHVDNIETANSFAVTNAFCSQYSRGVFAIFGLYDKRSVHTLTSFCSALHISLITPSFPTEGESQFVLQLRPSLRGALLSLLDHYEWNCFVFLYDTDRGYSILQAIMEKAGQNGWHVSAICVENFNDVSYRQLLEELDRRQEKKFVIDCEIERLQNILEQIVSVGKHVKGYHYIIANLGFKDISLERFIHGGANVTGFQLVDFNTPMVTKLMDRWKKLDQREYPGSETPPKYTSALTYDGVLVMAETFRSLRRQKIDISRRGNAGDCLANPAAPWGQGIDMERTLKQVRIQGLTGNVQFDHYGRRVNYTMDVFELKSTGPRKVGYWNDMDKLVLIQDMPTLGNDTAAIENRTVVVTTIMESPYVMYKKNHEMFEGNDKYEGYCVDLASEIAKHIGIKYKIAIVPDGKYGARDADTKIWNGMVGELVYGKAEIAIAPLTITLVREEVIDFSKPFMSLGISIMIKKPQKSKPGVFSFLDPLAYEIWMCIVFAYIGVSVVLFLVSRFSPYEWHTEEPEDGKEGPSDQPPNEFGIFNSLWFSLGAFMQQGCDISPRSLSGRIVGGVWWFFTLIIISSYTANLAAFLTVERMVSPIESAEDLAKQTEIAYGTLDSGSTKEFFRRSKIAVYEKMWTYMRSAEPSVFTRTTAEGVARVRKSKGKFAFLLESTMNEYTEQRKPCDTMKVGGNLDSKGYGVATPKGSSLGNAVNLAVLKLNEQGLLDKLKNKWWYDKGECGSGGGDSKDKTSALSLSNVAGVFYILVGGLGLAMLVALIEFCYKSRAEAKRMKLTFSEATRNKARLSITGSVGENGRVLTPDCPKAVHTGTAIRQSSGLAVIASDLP
Sequence of Glutamate receptor ionotropic, AMPA (Rattus norvegicus, UniProt P19491+P19492+P19493+P19490) (P19490 whole entry): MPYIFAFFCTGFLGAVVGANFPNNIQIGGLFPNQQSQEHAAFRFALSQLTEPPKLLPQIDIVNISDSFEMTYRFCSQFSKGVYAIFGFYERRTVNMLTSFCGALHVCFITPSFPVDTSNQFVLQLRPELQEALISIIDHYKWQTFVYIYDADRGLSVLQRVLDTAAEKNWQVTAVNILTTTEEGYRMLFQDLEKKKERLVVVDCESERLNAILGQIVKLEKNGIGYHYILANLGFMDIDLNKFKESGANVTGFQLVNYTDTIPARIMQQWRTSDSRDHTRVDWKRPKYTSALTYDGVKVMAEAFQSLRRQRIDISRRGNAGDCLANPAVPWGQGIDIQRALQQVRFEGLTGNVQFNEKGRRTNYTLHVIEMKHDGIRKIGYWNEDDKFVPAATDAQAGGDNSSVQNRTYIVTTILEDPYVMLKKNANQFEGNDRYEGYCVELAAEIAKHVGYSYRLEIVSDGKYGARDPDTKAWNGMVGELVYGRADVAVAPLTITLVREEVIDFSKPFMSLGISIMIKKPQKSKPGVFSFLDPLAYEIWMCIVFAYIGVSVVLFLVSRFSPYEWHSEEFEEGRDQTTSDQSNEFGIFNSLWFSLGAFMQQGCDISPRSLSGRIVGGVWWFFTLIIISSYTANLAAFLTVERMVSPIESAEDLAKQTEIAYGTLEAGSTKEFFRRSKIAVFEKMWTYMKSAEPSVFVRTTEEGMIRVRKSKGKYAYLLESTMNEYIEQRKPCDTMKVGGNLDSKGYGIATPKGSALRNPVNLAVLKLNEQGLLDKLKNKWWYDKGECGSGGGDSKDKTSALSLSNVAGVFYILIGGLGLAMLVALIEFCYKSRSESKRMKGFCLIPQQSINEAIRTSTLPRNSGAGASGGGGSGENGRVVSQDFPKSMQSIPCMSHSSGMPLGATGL

| SMILES | IC50 [1] [nM] | IC50 [2] |
| --- | --- | --- |
| CCCC(=O)N[C@@H](Cc1ccc(O)cc1)C(=O)NCCCNCCCCNCCCN [PHILANTHOTOXIN 343] | 130 |  |
| CCCC(=O)N1C[C@H](OCc2ccccc2)C[C@H]1C(=O)NCCCNCCCCNCCCN | 260 |  |
| CCCC(=O)N[C@@H](CCc1ccccc1)C(=O)NCCCNCCCCNCCCN | 170 |  |
| CCCC(=O)N[C@H](C(=O)NCCCNCCCCNCCCN)c1ccccc1 | 320 |  |
| CCCC(=O)N[C@H](Cc1ccc(O)cc1)C(=O)NCCCNCCCCNCCCN | 70 |  |
| CCCC(=O)N[C@@H](Cc1c[nH]c2ccccc12)C(=O)NCCCNCCCCNCCCN | 300 |  |
| CCCC(=O)N[C@@H](Cc1ccccc1)C(=O)NCCCNCCCCNCCCN | 430 |  |
| CCCC(=O)N1Cc2ccc(O)cc2CC1C(=O)NCCCNCCCCNCCCN (stereo not drawn) | 220 |  |
| CCCC(=O)N[C@@H](Cc1ccc2ccccc2c1)C(=O)NCCCNCCCCNCCCN | 100 |  |
| CCCC(=O)NC1(C(=O)NCCCNCCCCNCCCN)Cc2ccccc2C1 | 190 |  |
| CCCC(=O)N[C@H](C(=O)NCCCNCCCCNCCCN)C(c1ccccc1)c1ccccc1 | 300 |  |
| NCCCNCCCCNCCCNC(=O)c1cc2ccccc2[nH]1 |  | Not Active |
| CCCC(=O)N[C@@H](Cc1ccc(-c2ccccc2)cc1)C(=O)NCCCNCCCCNCCCN | 80 |  |
| CCCC(=O)N1Cc2ccccc2C[C@H]1C(=O)NCCCNCCCCNCCCN | 370 |  |
| CCCC(=O)N1c2ccccc2CC1C(=O)NCCCNCCCCNCCCN (stereo not drawn) | 1390 |  |
| CCCC(=O)N1C[C@@H](Oc2ccc3ccccc3c2)C[C@H]1C(=O)NCCCNCCCCNCCCN | 1040 |  |
| CCCC(=O)NC1(C(=O)NCCCNCCCCNCCCN)CCc2ccccc2C1 (stereo not drawn) | 250 |  |
| CCCC(=O)N1CCC(C(=O)NCCCNCCCCNCCCN)(c2ccccc2)CC1 | 1320 |  |
